Reference: patent publication US11939377B2, “Affinity matured CD22-specific monoclonal antibody and uses thereof” (The U.S.A., as represented by the Secretary, Department of …, priority 2018, dated 2024)

Key:
[1] = molecular target: T1, PKC-βII (Homo sapiens, UniProt P05771); experiment: PKC-βII western blot of Bryostatin 1-treated cell lines; type: cell-based; settings: 24 hours exposure
T1 construct: Leukemia cell protein extracts were prepared by lysing cells with RIPA buffer; endogenous in cells; host or cells: Toledo, Kopn8, Nalm6
T1 sequence (P05771 1-673 isoform P05771-2): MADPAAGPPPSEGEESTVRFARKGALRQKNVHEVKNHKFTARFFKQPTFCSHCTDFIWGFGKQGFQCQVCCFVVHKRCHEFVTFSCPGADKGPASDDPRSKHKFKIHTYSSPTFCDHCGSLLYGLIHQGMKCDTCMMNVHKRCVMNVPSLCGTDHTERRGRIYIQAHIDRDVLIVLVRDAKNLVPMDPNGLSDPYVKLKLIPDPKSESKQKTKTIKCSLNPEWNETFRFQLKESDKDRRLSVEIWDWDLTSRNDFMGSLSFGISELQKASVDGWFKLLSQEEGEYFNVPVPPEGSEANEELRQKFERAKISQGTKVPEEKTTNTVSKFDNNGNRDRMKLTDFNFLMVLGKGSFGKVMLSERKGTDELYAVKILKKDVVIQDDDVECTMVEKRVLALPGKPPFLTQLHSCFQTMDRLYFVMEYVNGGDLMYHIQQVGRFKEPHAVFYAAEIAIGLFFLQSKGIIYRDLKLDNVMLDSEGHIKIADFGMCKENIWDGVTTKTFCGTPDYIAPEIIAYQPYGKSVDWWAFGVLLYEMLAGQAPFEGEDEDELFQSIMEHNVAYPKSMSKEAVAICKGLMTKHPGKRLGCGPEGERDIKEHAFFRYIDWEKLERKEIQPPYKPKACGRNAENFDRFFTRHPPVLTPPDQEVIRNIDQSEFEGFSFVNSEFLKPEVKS
Experimental: FIGS. 10A-10E: (FIG. 10A) Three cell lines (Toldeo, Kopn8 and Nalm6) were co-incubated with Bryostatin 1 at varying concentrations for 24 hours. At 24 hours, cells were collected for protein kinase C (PKC)-βII isoform analysis by western blot. (FIG. 10B) KOPN8 or SEM cell lines were exposed to Bryostatin 1 for 16, 24, 48 or 72 hours. RNA was extracted from cells and analyzed using RNAseq. (FIG. 10C) Immunofluorescent staining of CD22 was conducted through permeabilization followed by staining of CD22. (FIG. 10D) Four cell lines were co-incubated with various combinations of Enzastaurin (10 μM), Staurosporine (100 μM), or Bryostatin 1 (1 nM) for 24 hours. CD22 expression was assessed using flow cytometry. MFI fold change=CD22 MFI^Bryostatin1/CD22 MFI^DMSO. (FIG. 10E) Cell lines were co-incubated with 1 nM Bryostatin 1 for 24 hours and measured for CD22 expression using CD22-PE antibody. MFI fold change=CD22 MFI^Bryostatin 1/CD22 MFI^DMSO.
Leukemia cell protein extracts were prepared by lysing cells with RIPA buffer and heating at 98° C. for 5 minutes. The proteins were separated on an SDS-PAGE gel and transferred to a nitrocellulose membrane. The membranes were immunoblotted with antibodies PKC-βII and GAPDH (Abcam), overnight at 4° C. […]

[2] = tested on: CD22^lo or Nalm6 leukemia; experiment: CAR T cell persistence and phenotype by flow cytometry in leukemia-bearing mice; type: in vivo, NSG mice
Experimental: FIGS. 9A-9F: (FIGS. 9A-9B) A total of 1×10^5 tumor cells were co-cultured with 1×10^5 mock, CD22, or […] CAR and assessed for IFNγ and IL2 cytokines by ELISA from cell culture supernatants (statistics were calculated using paired t test (*, P<0.0332); FIG. 9A) or Annexin V staining was assessed over time using IncuCyte ZOOM (FIG. 9B). […] (FIG. 9C) NSG mice were injected with 1×10^6 GPF-positive CD22^neg, CD22^lo, or Nalm6 tumor cells on day 0. On day 3, 5×10^6 CD22 or CD22^V1 CAR were injected for treatment. Mice were imaged using IVIS technology and luciferin-D intraperitoneal injections. Luminescence quantification is shown on the right. […] (FIG. 9D) CD22 or CD22^V1 CART were co-incubated with tumor cells. On days 1 and 8, CAR was harvested, stained for flow cytometry, and analyzed on Fortessa flow machine. Statistics were calculated using unpaired t test (*, P<0.0332). (FIGS. 9E-9F) Mice were injected with CD22^lo or Nalm6 leukemia on day 0. […] Bone marrow cells were stained for flow cytometry and analyzed on Fortessa flow machine. Statistics were calculated using unpaired t test (****, P<0.0001; *, P<0.0332).
FIGS. 13A-13F: (FIG. 13A) BIAcore analysis was used to evaluate association and dissociation curves of various scFvs. Note: The calculated dissociation rate constant kd (1.1×10^−6 l/s) is lower than the kd which can be measured by the BIAcore X-100 used here (1.0×10^−5 l/s). […] (FIG. 13B) CD22^V1 or CD22 CART were co-cultured with CD22^neg or CD22^lo leukemia and evaluated at 24 hours for PD1 expression through flow cytometry on a Fortessa flow machine. […] Bone marrow cells were stained for flow cytometry and analyzed on Fortessa flow machine. Statistics were calculated using unpaired t-test (** p<0.0021).
CD22-CAR functionality and anti-leukemic efficacy were evaluated in vivo in Nalm6 xenograft or PDX models with NOD.Cg-Prkdcscid Il2rgtm1Wjl/SzJ (NSG) mice (The Jackson Laboratory and bred in-house) ages 6-10 weeks. […] On day 3, mice received CD22-CAR-transduced T cells or mock-transduced T cells intravenously at the indicated quantity. […]

SMILES: CCC/C=C/C=C/C(=O)O[C@H]1/C(=C/C(=O)OC)C[C@H]2C[C@H]([C@@H](C)O)OC(=O)C[C@H](O)C[C@@H]3C[C@H](OC(C)=O)C(C)(C)[C@](O)(C[C@@H]4C/C(=C/C(=O)OC)C[C@H](/C=C/C(C)(C)[C@]1(O)O2)O4)O3 [Bryostatin 1]
- PKCβII protein levels on ALL [1]: decreased
- CD22 CART in bone marrow ([2]; 30 days, drug 40 μg/kg once weekly for 2 weeks after CART): slightly increased
- central memory and effector memory cells within CD8+ CART population, spleen ([2]; Nalm6 pretreated with drug, seven days after CD22 CAR injection): significant cumulative enrichment
- CART activation/exhaustion markers (PD1, TIM3, LAG3) ([2]; with Bryostatin 1 exposure): stable PD1 expression, without increase in TIM3 or LAGS
